According to patent US9513294B2, “Megastokes amino-triazolyl-BODIPY compounds and applications to live neuron staining and human serum albumin FA1 drug site probing” (National University of Singapore, priority 2012, dated 2016):

Experiments:
[1] = Quantum yield measurements versus Acridine Yellow in EtOH; format: physicochemical; details: for φ (quantum yield): excitation 460 nm; for φ (%): quantum yield
Summary of the method: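 Fluorescence quantum yield is relative to Acridine Yellow in EtOH (Φ 0.47), with excitation at 460 nm. Integrated emission at 510–700 nm was corrected for absorbance at the excitation wavelength and for solvent refractive index.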

[2] = Absorbance and fluorescence emission spectra (SpectraMax M2); format: physicochemical; details: for λmax Absorp. (nm) / λmax Emission (nm): MKCA compound library; for λmax Absorp. (nm) / λmax Abs. (nm): absorbance maximum; for λmax Emission (nm) / λmax Em. (nm): fluorescence emission maximum; for λmax Abs. (nm) / λmax Em. (nm): MKAC compound library
Summary of the method: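 Absorbance and emission maxima measured on a SpectraMax M2 spectrophotometer, which also gave quantum yield data; analysis in GraphPrism.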

φ (quantum yield) ([1]; MK library, Table 5) [%] | λmax Absorp. ([2]; MK library, Table 5) [nm] | λmax Emission ([2]; MK library, Table 5) [nm] | φ (%) ([1]; MKCA compound library) | λmax Absorp. (nm) [2] [nm] | λmax Emission (nm) [2] [nm] | SMILES | other results
0.13 | 480 | 585 |  |  |  | Nc1ccc(C2=C3C=CC(N4CCc5ccccc5C4)=[N+]3[B-](F)(F)n3c2ccc3-n2cc(CCc3ccccc3)nn2)cc1 [MK66-19] | 
 |  |  | 19.42 | 464 | 562 | COc1ccc(OC)c(CNC2=[N+]3C(=C(c4ccc(NC(=O)CCl)cc4)c4ccc(-n5cc(CO)nn5)n4[B-]3(F)F)C=C2)c1 [MKCA181-70] | 
 |  |  | 36.09 | 466 | 561 | CCCc1cn(-c2ccc3n2[B-](F)(F)[N+]2=C(NCc4cc(F)cc(F)c4)C=CC2=C3c2ccc(NC(=O)CCl)cc2)nn1 [MKCA412-48] | 
 |  |  |  |  |  | CC(=O)Nc1ccc(C2=C3C=CC(N4CCCC4)=[N+]3[B-](F)(F)n3c2ccc3-n2cc(C3CC3)nn2)cc1 [MKAC215-4] | φ (%) ([1]; MKAC compound library): 2.35%; λmax Abs. (nm) [2]: 462 nm; λmax Em. (nm) [2]: 576 nm
 |  |  |  |  |  | CCCC(C)c1cn(-c2ccc3n2[B-](F)(F)[N+]2=C(N4CCCC4)C=CC2=C3c2ccc(NC(C)=O)cc2)nn1 (racemic) [MKAC215-3] | φ (%) ([1]; MKAC compound library): 3.81%; λmax Abs. (nm) [2]: 461 nm; λmax Em. (nm) [2]: 569 nm
0.46 | 476 | 564 |  |  |  | CCCC(C)c1cn(-c2ccc3n2[B-](F)(F)[N+]2=C(N(C)Cc4ccccc4)C=CC2=C3c2ccc(N)cc2)nn1 (stereo not drawn) [MK195-3] | 
0.57 | 476 | 580 |  |  |  | CC1CN(C2=[N+]3C(=C(c4ccc(N)cc4)c4ccc(-n5cc(C6CCCC6)nn5)n4[B-]3(F)F)C=C2)CC(C)O1 (stereo not drawn) [MK20-5] | 
 |  |  |  |  |  | Nc1ccc(C2=C3C=CC(N4CCCCC4)=[N+]3[B-](F)(F)n3c2ccc3-n2cc(-c3cccc(F)c3)nn2)cc1 [BDC-31] | φ (quantum yield) ([1]; BDC library, Table 2): 0.11%; λmax Absorp. ([2]; BDC library, Table 2): 470 nm; λmax Emission ([2]; BDC library, Table 2): 582 nm
 |  |  |  |  |  | CC(=O)Nc1ccc(C2=C3C=CC(N4CCCCC4)=[N+]3[B-](F)(F)n3c2ccc3-n2cc(-c3ccc(-c4ccccc4)cc3)nn2)cc1 [BDCAC-23] | φ (quantum yield) ([1]; BDCAC library, Table 3): 1.3%; λmax Absorp. ([2]; BDCAC library, Table 3): 465 nm; λmax Emission ([2]; BDCAC library, Table 3): 574 nm
 |  |  | 5.32 | 467 | 583 | CC1CN(C2=[N+]3C(=C(c4ccc(NC(=O)CCl)cc4)c4ccc(-n5cc(CCc6ccccc6)nn5)n4[B-]3(F)F)C=C2)CC(C)O1 (stereo not drawn) [MKCA20-19] | 
 |  |  | 6.17 | 465 | 581 | CN(Cc1ccccc1)C1=[N+]2C(=C(c3ccc(NC(=O)CCl)cc3)c3ccc(-n4cc(CC5CCCCC5)nn4)n3[B-]2(F)F)C=C1 [MKCA195-8] | 
1.68 | 473 | 563 |  |  |  | CCOc1ccccc1CNC1=[N+]2C(=C(c3ccc(N)cc3)c3ccc(-n4cc(C5CC5)nn4)n3[B-]2(F)F)C=C1 [MK103-4] | 
0.32 | 476 | 563 |  |  |  | CC1CN(C2=[N+]3C(=C(c4ccc(N)cc4)c4ccc(-n5cc(CC6CCCCC6)nn5)n4[B-]3(F)F)C=C2)CC(C)O1 (stereo not drawn) [MK20-8] | 
 |  |  |  |  |  | COc1cc(OC)cc(-c2cn(-c3ccc4n3[B-](F)(F)[N+]3=C(N5CCCCC5)C=CC3=C4c3ccc(N)cc3)nn2)c1 [BDC-14] | φ (quantum yield) ([1]; BDC library, Table 2): 0.18%; λmax Absorp. ([2]; BDC library, Table 2): 473 nm; λmax Emission ([2]; BDC library, Table 2): 578 nm
 |  |  |  |  |  | Nc1ccc(C2=C3C=CC(N4CCCCC4)=[N+]3[B-](F)(F)n3c2ccc3-n2cc(-c3ccc(F)cc3F)nn2)cc1 [BDC-26] | φ (quantum yield) ([1]; BDC library, Table 2): 0.12%; λmax Absorp. ([2]; BDC library, Table 2): 473 nm; λmax Emission ([2]; BDC library, Table 2): 585 nm
 |  |  | 21.53 | 462 | 562 | Cc1ccccc1CNC1=[N+]2C(=C(c3ccc(NC(=O)CCl)cc3)c3ccc(-n4cc(CN(C)Cc5ccccc5)nn4)n3[B-]2(F)F)C=C1 [MKCA101-18] | 
 |  |  | 7.95 | 466 | 577 | CCCC(C)c1cn(-c2ccc3n2[B-](F)(F)[N+]2=C(N(C)Cc4ccccc4)C=CC2=C3c2ccc(NC(=O)CCl)cc2)nn1 (stereo not drawn) [MKCA195-3] | 
 |  |  |  |  |  | CCCCCCCCCCc1cn(-c2ccc3n2[B-](F)(F)[N+]2=C(N4CCCCC4)C=CC2=C3c2ccc(NC(=O)CCl)cc2)nn1 [BDCCA-49] | φ (quantum yield) ([1]; BDCCA library, Table 4): 1.2%; λmax Absorp. ([2]; BDCCA library, Table 4): 466 nm; λmax Emission ([2]; BDCCA library, Table 4): 575 nm
 |  |  |  |  |  | CC(=O)Nc1ccc(C2=C3C=CC(N4CCCCC4)=[N+]3[B-](F)(F)n3c2ccc3-n2cc(C3=CCCCC3)nn2)cc1 [BDCAC-37] | φ (quantum yield) ([1]; BDCAC library, Table 3): 1.9%; λmax Absorp. ([2]; BDCAC library, Table 3): 466 nm; λmax Emission ([2]; BDCAC library, Table 3): 565 nm
 |  |  | 38.23 | 465 | 562 | CCCc1cn(-c2ccc3n2[B-](F)(F)[N+]2=C(NCc4ccccc4OCC)C=CC2=C3c2ccc(NC(=O)CCl)cc2)nn1 [MKCA103-48] | 

φ (quantum yield) ([1]; MK library, Table 5) [%] | λmax Absorp. ([2]; MK library, Table 5) [nm] | λmax Emission ([2]; MK library, Table 5) [nm] | φ (%) ([1]; MKCA compound library) | λmax Absorp. (nm) [2] [nm] | λmax Emission (nm) [2] [nm] | SMILES | other results
 |  |  |  |  |  | CC(=O)Nc1ccc(C2=C3C=CC(N(C)Cc4ccccc4)=[N+]3[B-](F)(F)n3c2ccc3-n2cc(C3CC3)nn2)cc1 [MKAC195-4] | φ (%) ([1]; MKAC compound library): 5.45%; λmax Abs. (nm) [2]: 466 nm; λmax Em. (nm) [2]: 582 nm
 |  |  | 2.19 | 468 | 585 | CC(C)Cc1cn(-c2ccc3n2[B-](F)(F)[N+]2=C(N4CC(C)OC(C)C4)C=CC2=C3c2ccc(NC(=O)CCl)cc2)nn1 (stereo not drawn) [MKCA20-43] | 
1.19 | 473 | 565 |  |  |  | CCOc1ccccc1CNC1=[N+]2C(=C(c3ccc(N)cc3)c3ccc(-n4cc(CN(C)Cc5ccccc5)nn4)n3[B-]2(F)F)C=C1 [MK103-18] | 
 |  |  |  |  |  | CCOc1ccccc1CNC1=[N+]2C(=C(c3ccc(NC(C)=O)cc3)c3ccc(-n4cc(CC5CCCCC5)nn4)n3[B-]2(F)F)C=C1 [MKAC103-8] | φ (%) ([1]; MKAC compound library): 25.32%; λmax Abs. (nm) [2]: 465 nm; λmax Em. (nm) [2]: 562 nm
 |  |  |  |  |  | CCCCc1ccc(-c2cn(-c3ccc4n3[B-](F)(F)[N+]3=C(N5CCCCC5)C=CC3=C4c3ccc(N)cc3)nn2)cc1 [BDC-12] | φ (quantum yield) ([1]; BDC library, Table 2): 0.09%; λmax Absorp. ([2]; BDC library, Table 2): 473 nm; λmax Emission ([2]; BDC library, Table 2): 594 nm
 |  |  |  |  |  | COc1cccc(-c2cn(-c3ccc4n3[B-](F)(F)[N+]3=C(N5CCCCC5)C=CC3=C4c3ccc(NC(C)=O)cc3)nn2)c1 [BDCAC-27] | φ (quantum yield) ([1]; BDCAC library, Table 3): 2.1%; λmax Absorp. ([2]; BDCAC library, Table 3): 464 nm; λmax Emission ([2]; BDCAC library, Table 3): 555 nm
 |  |  |  |  |  | CC(=O)Nc1ccc(C2=C3C=CC(N4CCCCC4)=[N+]3[B-](F)(F)n3c2ccc3-n2cc(C3(O)CCCC3)nn2)cc1 [BDCAC-67] | φ (quantum yield) ([1]; BDCAC library, Table 3): 0.8%; λmax Absorp. ([2]; BDCAC library, Table 3): 469 nm; λmax Emission ([2]; BDCAC library, Table 3): 592 nm
 |  |  | 2.58 | 465 | 581 | CN(Cc1ccccc1)C1=[N+]2C(=C(c3ccc(NC(=O)CCl)cc3)c3ccc(-n4cc(CO)nn4)n3[B-]2(F)F)C=C1 [MKCA195-70] | 
0.53 | 471 | 568 |  |  |  | Nc1ccc(C2=C3C=CC(N4CCCC4)=[N+]3[B-](F)(F)n3c2ccc3-n2cc(C3CCCC3)nn2)cc1 [MK215-5] | 
0.41 | 475 | 571 |  |  |  | CC(C)Cc1cn(-c2ccc3n2[B-](F)(F)[N+]2=C(N(C)Cc4ccccc4)C=CC2=C3c2ccc(N)cc2)nn1 [MK195-43] | 
 |  |  | 29.92 | 466 | 562 | Cc1ccccc1CNC1=[N+]2C(=C(c3ccc(NC(=O)CCl)cc3)c3ccc(-n4cc(CC(C)C)nn4)n3[B-]2(F)F)C=C1 [MKCA101-43] | 
0.86 | 473 | 563 |  |  |  | CCCCCC(O)c1cn(-c2ccc3n2[B-](F)(F)[N+]2=C(NCc4cc(OC)ccc4OC)C=CC2=C3c2ccc(N)cc2)nn1 (stereo not drawn) [MK181-69] | 
0.23 | 478 | 584 |  |  |  | CC(C)Cc1cn(-c2ccc3n2[B-](F)(F)[N+]2=C(N4CC(C)OC(C)C4)C=CC2=C3c2ccc(N)cc2)nn1 (stereo not drawn) [MK20-43] | 
 |  |  |  |  |  | CC(=O)Nc1ccc(C2=C3C=CC(N(C)Cc4ccccc4)=[N+]3[B-](F)(F)n3c2ccc3-n2cc(CCc3ccccc3)nn2)cc1 [MKAC195-19] | φ (%) ([1]; MKAC compound library): 3.78%; λmax Abs. (nm) [2]: 467 nm; λmax Em. (nm) [2]: 577 nm
0.52 | 475 | 580 |  |  |  | CN(Cc1ccccc1)Cc1cn(-c2ccc3n2[B-](F)(F)[N+]2=C(N(C)Cc4ccccc4)C=CC2=C3c2ccc(N)cc2)nn1 [MK195-18] | 
0.22 | 471 | 578 |  |  |  | Nc1ccc(C2=C3C=CC(N4CCCC4)=[N+]3[B-](F)(F)n3c2ccc3-n2cc(CCc3ccccc3)nn2)cc1 [MK215-19] | 
 |  |  | 20.22 | 463 | 563 | CCOc1ccccc1CNC1=[N+]2C(=C(c3ccc(NC(=O)CCl)cc3)c3ccc(-n4cc(CO)nn4)n3[B-]2(F)F)C=C1 [MKCA103-70] | 
 |  |  | 3.99 | 463 | 569 | CCCC(C)c1cn(-c2ccc3n2[B-](F)(F)[N+]2=C(N4CCCC4)C=CC2=C3c2ccc(NC(=O)CCl)cc2)nn1 (stereo not drawn) [MKCA215-3] | 
0.88 | 472 | 568 |  |  |  | COc1ccc(OC)c(CNC2=[N+]3C(=C(c4ccc(N)cc4)c4ccc(-n5cc(CO)nn5)n4[B-]3(F)F)C=C2)c1 [MK181-70] | 
 |  |  |  |  |  | CC(=O)Nc1ccc(C2=C3C=CC(N4CCCCC4)=[N+]3[B-](F)(F)n3c2ccc3-n2cc(C(C)(C)C)nn2)cc1 [BDCAC-1] | φ (quantum yield) ([1]; BDCAC library, Table 3): 1.5%; λmax Absorp. ([2]; BDCAC library, Table 3): 469 nm; λmax Emission ([2]; BDCAC library, Table 3): 580 nm
